Assay results published in paper PMC12656849 (Viruses, 2025).
Counter-ions that a name gives are not always drawn.

Key:
[1] = target: T1, MPXV H1 (Monkeypox virus, UniProt A0A7H0DN78); assay: biochemical
[2] = tested on: HeLa cells
[3] = tested on: VARV H1; details: cited from earlier work
[4] = tested on: MPXV; details: cited from earlier work
[5] = target: T1, MPXV H1; type: biochemical; details: read-out: Michaelis constant (Km); pH 6.5
[6] = tested on: mpox; details: in vivo; cited from earlier work

T1 sequence (A0A7H0DN78 whole entry, looked up): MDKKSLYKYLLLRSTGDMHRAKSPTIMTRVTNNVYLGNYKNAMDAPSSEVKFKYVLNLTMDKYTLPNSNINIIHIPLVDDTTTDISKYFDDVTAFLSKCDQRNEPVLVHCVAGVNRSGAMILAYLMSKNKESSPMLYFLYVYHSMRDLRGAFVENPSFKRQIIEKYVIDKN

| Structure (SMILES) | IC50 [1] | cytotoxicity (in words) [2] | also measured |
| --- | --- | --- | --- |
| CC(C)(C)C(=O)Nc1ccc2c(c1)C(=O)C(=O)c1ccccc1-2 [Compound 35, SF1670] | 154 ± 12 nM |  |  |
| N#CSc1cc(SC#N)c(N)nc1N [Compound 41, PR619] | 176 ± 7 nM | particularly low cytotoxicity |  |
| CC1(C)CCC2=C(O1)c1ccccc1C(=O)C2=O [Compound 45, Beta-lapachone] | 348 ± 17 nM | particularly low cytotoxicity |  |
| O=C1C=C(Cl)C(=O)c2ccccc21 [Compound 47, 2-Chloro-1,4-naphthoquinone] | 837 ± 56 nM | particularly low cytotoxicity |  |
| Cl.Oc1cccc(O)n1 [Compound 57, 2,6-Dihydroxypyridine hydrochloride] | 911 ± 64 nM | particularly low cytotoxicity |  |
| O=C1C(=O)c2ncccc2-c2cccnc21 [Compound 59, Phanquinone] | 241 ± 7 nM |  |  |
| CN(C)CCNc1nc2cc(O)ccc2c2c1C(=O)c1ccccc1-2 [Compound 68, TAS-103 (dihydrochloride)] | 865 ± 16 nM | substantial cytotoxicity |  |
| CC(=O)c1cc2c(o1)C(=O)c1ccccc1C2=O [Compound 75, Napabucasin] | 957 ± 40 nM | substantial cytotoxicity |  |
| CC(C)NC1=CC=CNC1N1CCN(C(=O)c2cc3cc(NS(C)(=O)=O)ccc3[nH]2)CC1 (stereo not shown) [Compound 88, Delavirdine (mesylate)] | 987 ± 48 nM | particularly low cytotoxicity |  |
| Cn1cccc1/C=C1\C(=O)NC(=O)c2ccccc21 [Compound 89, BYK204165] | 794 ± 46 nM | particularly low cytotoxicity |  |
| Cc1coc2c1C(=O)C(=O)c1c-2ccc2c1CCCC2(C)C [Compound 106, Tanshinone IIA] | 531 ± 19 nM |  |  |
| COCCn1c2c([n+](Cc3cnccn3)c1C)C(=O)c1ccccc1C2=O [Compound 108, YM155] | 826 ± 65 nM | substantial cytotoxicity |  |
| CC1=CC(=O)c2c(O)cccc2C1=O [Compound 109, Plumbagin] | 874 ± 24 nM | particularly low cytotoxicity |  |
| Cc1c(S(=O)(=O)O)oc2c1C(=O)C(=O)c1c-2ccc2c1CCCC2(C)C [Compound 111, Tanshinone IIA sulfonate sodium] | 287 ± 10 nM |  |  |
| COc1cc2c3c(c1OC)-c1ccccc1C[C@H]3N(C)CC2 [Compound 112, Nuciferine] | 752 ± 9 nM |  |  |
| Nc1cc(N)c(N)cc1N [Compound 118, 1,2,4,5-Benzenetetramine tetrahydrochloride] | 333 ± 30 nM |  |  |
| COc1ccc2c(c1OC)CC1c3c(cc4c(c3-2)OCO4)CCN1C (stereo not shown) [Compound 122, Crebanine] | 229 ± 21 nM |  |  |
| COc1cc2c3c(cc4ccccc4c3c1OC)N(C)CC2 [Compound 123, Dehydronuciferine] | 356 ± 25 nM | particularly low cytotoxicity |  |
| CC(C)(c1ccc(NS(=O)(=O)C(F)(F)F)cc1)c1ccc(C(C)(C)c2ccc(NS(=O)(=O)C(F)(F)F)cc2)cc1 [PTP inhibitor IV] | 18900 nM |  | potency of VARV H1 inhibition [3]: low-micromolar potency |
| OC(c1cc(C(F)(F)F)nc2c(C(F)(F)F)cccc12)C1CCCCN1 (stereo not shown) [mefloquine] |  |  | inhibition of MPXV [4]: inhibit MPXV |
| O=[N+]([O-])c1ccc(OP(=O)(O)O)cc1 [pNPP, p-nitrophenyl phosphate] |  |  | Km [5]: 1500 µM |
| O=C(NN1C(=O)[C@@H]2[C@@H]3C=C[C@@H]([C@H]4C[C@@H]34)[C@@H]2C1=O)c1ccc(C(F)(F)F)cc1 [tecovirimat] |  |  | mpox symptom duration compared with placebo [6]: did not shorten |
